Molecular target: T1, RORc (Homo sapiens, UniProt P51449)
T1 sequence (P51449 269-508 limits assumed): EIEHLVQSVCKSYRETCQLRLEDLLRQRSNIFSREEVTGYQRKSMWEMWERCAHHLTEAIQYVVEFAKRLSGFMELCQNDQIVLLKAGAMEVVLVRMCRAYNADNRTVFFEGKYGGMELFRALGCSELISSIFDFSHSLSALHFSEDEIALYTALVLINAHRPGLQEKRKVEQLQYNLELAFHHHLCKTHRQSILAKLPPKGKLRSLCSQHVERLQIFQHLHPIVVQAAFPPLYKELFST
Test: In vitro RORc ligand binding assay (25-[3H]hydroxycholesterol displacement)
Settings: IC50, IC50 values for RORc; unit inferred
Method: This assay was used to determine a compound's potency in inhibiting activity of RORc by determining, Kiapp, IC50, or percent inhibition values.
On day of the assay, 100 uL of 0.05% CHAPS (in deionized H2O) was added to all wells of the GFB Unifilter plate and allowed soak for 1 h. A wash buffer of 50 mM HEPES (pH 7.4), 150 mM NaCl, and 5 mM MgCl2 was prepared to wash the filter plate. To prepare an assay buffer, BSA was added to the wash buffer to reach 0.01% and DTT was added to reach 1 mM.
The 20× compound stocks were diluted in DMSO with Assay Buffer 4-fold to reach 5× the final test concentration in 25% DMSO (10 uL compound+30 uL Assay Buffer). Solutions were mixed by aspiration several times with a pipette set on 50 uL volume. For the assay, 10 uL of 5× compound stock solutions in 25% DMSO were added to the assay plate in duplicate.
For two point screening, 10 mM stock compound solutions were diluted in DMSO to obtain 200 uM (20× the high test concentration) and then diluted 10-fold further to reach 20 uM (20× the low test concentration). The 20× stocks were diluted 4-fold with Assay Buffer (10 uL compound+30 uL Assay Buffer) to reach 5× the test concentrations (50 uM and 5 uM) and 10 uL were added to two assay plates for the duplicate wells. With each concentration tested on 2 plates, each set of 80 compounds used 4 assay plates (1 uM and 10 uM, with n=2).
For 25-hydroxycholesterol in 25% DMSO/75% Assay Buffer; 10 uL per well was used for NSB samples. Wells for Total Binding and No Receptor sample determination contained 10 uL of 25% DMSO/75% Assay Buffer per well.
Add 20 uL to all wells to reach 6 nM final in the assay.
Stock receptor solution was diluted in assay buffer to obtain 1.5 ug/mL in Assay Buffer. 20 uL was added to all wells. For No R samples, 20 uL Assay Buffer was substituted for receptor solution.
Assay plates were 96-well polypropylene V-bottom plates. 10 uL of 5× compound in 25% DMSO/75% Assay Buffer was added to Test wells. 10 uL of 25% DMSO/75% Assay Buffer was added to Total Binding or No Receptor wells. 10 uL of 5 uM 25-hydroxycholesterol in 25% DMSO/75% Assay Buffer was added to NSB wells. […] 20 uL of 1.5 ug/mL RORc receptor was added to wells (or 40 uL Assay Buffer to No R wells). Following addition to the wells, the plates were incubated 3 h at 25° C.
Using a Packard Filtermate Harvester, the filter plate were washed 4 times following transfer of the incubated samples. Plates were dry-filtered completely (2 h at 50° C. or overnight at room temperature). 50 uL Microscint 0 was added to all wells and read on Topcount protocol Inverted.
For NSB wells, 1 uM 25-hydroxycholesterol was also present.

Row | Compound | IC50
1 | C[C@H]1CC[C@H](c2ccccc2)S(=O)(=O)N1Cc1ccc(C2(C(=O)NCC(N)=O)CCOCC2)cc1F [Compound 59, N-(2-amino-2-oxo-ethyl)-4-[3-fluoro-4-[[(3S,6R)-3-methyl-1,1-dioxo-6-phenyl-thiazinan-2-yl]methyl]phenyl]tetrahydropyran-4-carboxamide] | 268 nM
2 | C[C@H]1CC[C@H](c2ccccc2)S(=O)(=O)N1Cc1ccc(C2(C(=O)NCCN(C)C)CCOCC2)cc1F [Compound 53, N-[2-(dimethylamino)ethyl]-4-[3-fluoro-4-[[(3S,6R)-3-methyl-1,1-dioxo-6-phenyl-thiazinan-2-yl]methyl]phenyl]tetrahydropyran-4-carboxamide] | 845 nM
3 | CC(=O)N(C)CC1(c2ccc(CN3[C@@H](C)CC[C@H](c4ccccc4)S3(=O)=O)c(F)c2)CCOCC1 [Compound 80, N-[[4-[3-fluoro-4-[[(3S,6R)-3-methyl-1,1-dioxo-6-phenyl-thiazinan-2-yl]methyl]phenyl]tetrahydropyran-4-yl]methyl]-N-methyl-acetamide] | 104 nM
4 | C[C@@H](O)CNC(=O)C1(c2ccc(CN3[C@@H](C)CC[C@H](c4ccccc4)S3(=O)=O)c(F)c2)CCOCC1 [Compound 66] | 47.4 nM
5 | C[C@H]1CC[C@H](c2ccccc2)S(=O)(=O)N1Cc1ccc([C@]2(CO)CC[C@@H](n3cnnc3)CC2)cc1F [Compound 26, {1-[3-Fluoro-4-((3S,6R)-3-methyl-1,1-dioxo-6-phenyl-[1,2]thiazinan-2-ylmethyl)-phenyl]-4-[1,2,4]triazol-4-yl-cyclohexyl}-methanol] | 32 nM
6 | C[C@H]1CC[C@H](c2ccccc2)S(=O)(=O)N1Cc1ccc(C2(C#N)CC2)cc1F [Compound 109, 1-[3-fluoro-4-[[(3S,6R)-3-methyl-1,1-dioxo-6-phenyl-thiazinan-2-yl]methyl]phenyl]cyclopropanecarbonitrile] | 116 nM
7 | C[C@H]1CC[C@@H](c2ccccc2)S(=O)(=O)N1Cc1cc(F)c([C@]2(O)CC[C@@H](n3cnnc3)CC2)cc1F [Compound 36, 1-[2,5-Difluoro-4-((3S,6S)-3-methyl-1,1-dioxo-6-phenyl-[1,2]thiazinan-2-ylmethyl)-phenyl]-4-[1,2,4]triazol-4-yl-cyclohexanol] | 13 nM
8 | C[C@H]1CC[C@H](c2ccccc2)S(=O)(=O)N1Cc1ccc(C2(CCO)CCOCC2)cc1F [Compound 78, 2-[4-[3-fluoro-4-[[(3S,6R)-3-methyl-1,1-dioxo-6-phenyl-thiazinan-2-yl]methyl]phenyl]tetrahydropyran-4-yl]ethanol] | 13.7 nM
9 | C[C@H]1CC[C@@H](c2ccccc2)S(=O)(=O)N1Cc1ccc(C2(O)CCS(=O)(=O)CC2)cc1F [Compound 41, (3S,6S)-2-(2-fluoro-4-(4-hydroxy-1,1-dioxidotetrahydro-2H-thiopyran-4-yl)benzyl)-3-methyl-6-phenyl-1,2-thiazinane 1,1-dioxide] | 1200 nM
10 | C[C@H]1CC[C@H](c2ccccc2)S(=O)(=O)N1Cc1ccc(C2(CCC(=O)N(C)C)CCOCC2)cc1F [Compound 85, 3-[4-[3-fluoro-4-[[(3S,6R)-3-methyl-1,1-dioxo-6-phenyl-thiazinan-2-yl]methyl]phenyl]tetrahydropyran-4-yl]-N,N-dimethyl-propanamide] | 10.5 nM
11 | C[C@H]1CCC(c2ccccc2)S(=O)(=O)N1Cc1ccc(C2(C(=O)O)CCOCC2)cc1 (stereo partly drawn) [Compound 29, 4-[4-((S)-3-Methyl-1,1-dioxo-6-phenyl-[1,2]thiazinan-2-ylmethyl)-phenyl]-tetrahydro-pyran-4-carboxylic acid] | 4400 nM

More lines, now with the values ahead:

Row | IC50 | Compound
12 | 37.9 nM | CC(OC1(c2ccc(CN3[C@@H](C)CC[C@H](c4ccccc4)S3(=O)=O)c(F)c2)CCOCC1)C(N)=O (stereo partly drawn) [Compound 174, 2-[4-[3-fluoro-4-[[(3S,6R)-3-methyl-1,1-dioxo-6-phenyl-thiazinan-2-yl]methyl]phenyl]tetrahydropyran-4-yl]oxypropanamide]
13 | 26 nM | CC(=O)N1CCC(OCC(N)=O)(c2cc(F)c(CN3[C@@H](C)CC[C@H](c4ccccc4)S3(=O)=O)cc2F)CC1 [Compound 141, 2-[[1-acetyl-4-[2,5-difluoro-4-[[(3S,6R)-3-methyl-1,1-dioxo-6-phenyl-thiazinan-2-yl]methyl]phenyl]-4-piperidyl]oxy]acetamide]
14 | 27.6 nM | C[C@H]1CC[C@H](c2ccccc2)S(=O)(=O)N1Cc1ccc(C2(NCC(=O)N(C)C)CCOCC2)cc1F [Compound 166, 2-[[4-[3-fluoro-4-[[(3S,6R)-3-methyl-1,1-dioxo-6-phenyl-thiazinan-2-yl]methyl]phenyl]tetrahydropyran-4-yl]amino]-N,N-dimethyl-acetamide]
15 | 35.5 nM | CC(=O)N1CCC(OCC(O)CO)(c2cc(F)c(CN3[C@@H](C)CC[C@H](c4ccccc4)S3(=O)=O)cc2F)CC1 (stereo in doubt) [Compound 168, 1-[4-[2,5-difluoro-4-[[(3S,6R)-3-methyl-1,1-dioxo-6-phenyl-thiazinan-2-yl]methyl]phenyl]-4-[(2S)-2,3-dihydroxypropoxy]-1-piperidyl]ethanone]
16 | 15.2 nM | C[C@H]1CC[C@H](c2ccccc2)S(=O)(=O)N1Cc1cc(F)c(C2(OCC(=O)NCCO)CCOCC2)cc1F [Compound 156, 2-[4-[2,5-difluoro-4-[[(3S,6R)-3-methyl-1,1-dioxo-6-phenyl-thiazinan-2-yl]methyl]phenyl]tetrahydropyran-4-yl]oxy-N-(2-hydroxyethyl)acetamide]
17 | 14.5 nM | CC(=O)N1CCC(C#N)(c2cc(F)c(CN3[C@@H](C)CC[C@H](c4ccccc4)S3(=O)=O)cc2F)CC1 [Compound 148, 1-acetyl-4-[2,5-difluoro-4-[[(3S,6R)-3-methyl-1,1-dioxo-6-phenyl-thiazinan-2-yl]methyl]phenyl]piperidine-4-carbonitrile]
18 | 227 nM | C[C@H]1CC[C@H](c2ccccc2)S(=O)(=O)N1Cc1ccc(C2(NC(=O)OC(C)(C)C)CC2)cc1F [Compound 152, tert-butyl N-[1-[3-fluoro-4-[[(3S,6R)-3-methyl-1,1-dioxo-6-phenyl-thiazinan-2-yl]methyl]phenyl]cyclopropyl]carbamate]
19 | 6.1 nM | C[C@H]1CC[C@H](c2ccccc2)S(=O)(=O)N1Cc1cc(F)c(C2(OCC(N)=O)CCOCC2)cc1F [Compound 150, 2-[4-[2,5-difluoro-4-[[(3S,6R)-3-methyl-1,1-dioxo-6-phenyl-thiazinan-2-yl]methyl]phenyl]tetrahydropyran-4-yl]oxyacetamide]
20 | 35 nM | C[C@H]1CC[C@H](c2ccccc2)S(=O)(=O)N1Cc1ccc(C2(C#N)CCC3(CC2)OCCO3)cc1F [Example 21, 8-[3-Fluoro-4-((3S,6R)-3-methyl-1,1-dioxo-6-phenyl-[1,2]thiazinan-2-ylmethyl)-phenyl]-1,4-dioxa-spiro[4.5]decane-8-carbonitrile]
21 | 8.07 nM | C[C@H]1CC[C@H](c2ccccc2)S(=O)(=O)N1Cc1cc(F)c(C2(C(N)=O)CC(=O)C2)cc1F [Compound 193, 1-[2,5-difluoro-4-[[(3S,6R)-3-methyl-1,1-dioxo-6-phenyl-thiazinan-2-yl]methyl]phenyl]-3-oxo-cyclobutanecarboxamide]
22 | 82 nM | C[C@H]1CC[C@H](c2ccccc2)S(=O)(=O)N1Cc1ccc(OCC2(CO)CCOCC2)cc1F [Example 3, {4-{3-Fluoro-4-((3S,6R)-3-methyl-1,1-dioxo-6-phenyl-[1,2]thiazinan-2-ylmethyl)-phenoxymethyl]-tetrahydro-pyran-4-yl}-methanol]
23 | 34.7 nM | C[C@H]1CC[C@H](c2ccccc2)S(=O)(=O)N1Cc1cc(F)c(C2(CO)CCC(O)CC2)cc1F (stereo partly drawn) [Compound 130, 4-[2,5-difluoro-4-[[(3S,6R)-3-methyl-1,1-dioxo-6-phenyl-thiazinan-2-yl]methyl]phenyl]-4-(hydroxymethyl)cyclohexanol]
24 | 17.2 nM | CC(=O)N1CC(OCC(=O)O)(c2cc(F)c(CN3[C@@H](C)CC[C@H](c4ccccc4)S3(=O)=O)cc2F)C1 [Compound 136, 2-[1-acetyl-3-[2,5-difluoro-4-[[(3S,6R)-3-methyl-1,1-dioxo-6-phenyl-thiazinan-2-yl]methyl]phenyl]azetidin-3-yl]oxyacetic acid]
25 | 17.9 nM | CC(=O)N1CCC(OCC(=O)O)(c2cc(F)c(CN3[C@@H](C)CC[C@H](c4ccccc4)S3(=O)=O)cc2F)CC1 [Compound 137, 2-[[1-acetyl-4-[2,5-difluoro-4-[[(3S,6R)-3-methyl-1,1-dioxo-6-phenyl-thiazinan-2-yl]methyl]phenyl]-4-piperidyl]oxy]acetic acid]
26 | 12.2 nM | CCOC(=O)C[C@@H](O)C1(c2ccc(CN3[C@@H](C)CC[C@H](c4ccccc4)S3(=O)=O)c(F)c2)CCOCC1 [Compound 116, ethyl (3R)-3-[4-[3-fluoro-4-[[(3S,6R)-3-methyl-1,1-dioxo-6-phenyl-thiazinan-2-yl]methyl]phenyl]tetrahydropyran-4-yl]-3-hydroxy-propanoate]
27 | 87.9 nM | C[C@H]1CC[C@H](c2ccccc2)S(=O)(=O)N1Cc1cc(F)c(C2(CO)CCC(n3cnnc3)CC2)cc1F (stereo partly drawn) [Compound 134, [1-[2,5-difluoro-4-[[(3S,6R)-3-methyl-1,1-dioxo-6-phenyl-thiazinan-2-yl]methyl]phenyl]-4-(1,2,4-triazol-4-yl)cyclohexyl]methanol]
28 | 1800 nM | C[C@H]1CC[C@H](c2ccccc2)S(=O)(=O)N1Cc1ccc([C@]2(CO)CC[C@H](n3cnnc3)CC2)cc1 [Example 14, {1-[4-((3S,6R)-3-Methyl-1,1-dioxo-6-phenyl-[1,2]thiazinan-2-ylmethyl)-phenyl]-4-[1,2,4]triazol-4-yl-cyclohexyl}-methanol]
